Data published in patent US20150299143A1, “SUBSTITUTED TRIAZOLE AND IMIDAZOLE COMPOUNDS” (HOFFMANN-LA ROCHE INC., priority 2012, published 2015).

Legend:
[1] = molecular target: T1, β 5i (chymotrypsin-like activity) (Homo sapiens, UniProt P20618+P28062); assay: Cell-Based Proteasome subunit activity/selectivity assay, β5i, substrate (ANW)2Rh110; conditions: Ramos cells; substrate (ANW)2Rh110 (β5i); highest concentration tested 20 μM; read-out: Ic50:ramos:ac-(anw)2-r110
T1 construct: protease activity associated with the proteasome complex in cultured cells; endogenous in cells; host or cells: Ramos cells
Excerpt: (§1) Cell-Based Proteasome Activity/Selectivity Assay
(§2) The Cell-Based Proteasome subunit activity/selectivity assay was a panel of 5 fluorogenic assays that independently measured the activity of β5c or β 5i (chymotrypsin-like activity), β 2c/2i (trypsin-like), and β 1c or β 1i (caspase-like) protease activity associated with the proteasome complex in cultured cells. Specifically, the following substrates were used for respective subunit activities: β 1i (PAL)2Rh110, β 1c: (LLE)2 Rh110, β 2c/2i: (KQL)2Rh110, β 5c: (WLA)2Rh110, β 5i: (ANW)2Rh110. The following procedure was followed:
(§3) Added 0.5 μl of 100× 4-fold serial diluted test compounds or DMSO to each well. Highest concentration of compound tested was 20 μM, thus compound serial dilution started from […]. Incubated for 30 minutes at 37° C. Then equilibrated at room temperature for 15 minutes. […] Shaked for one minute @ 700 rpm. Incubated for 120 min at room temperature. Then read the plates with an Envision multilabel plate reader (PerkinElmer) with 500 nm excitation/519 nm emission.

[2] = molecular target: T2, β5c (chymotrypsin-like activity) (Homo sapiens, UniProt P20618+P28074); assay: Cell-Based Proteasome subunit activity/selectivity assay, β5c, substrate (WLA)2Rh110; conditions: Ramos cells; substrate (WLA)2Rh110 (β5c); highest concentration tested 20 μM; read-out: Ic50:ramos:rh110-(wla)2
T2 construct: protease activity associated with the proteasome complex in cultured cells; endogenous in cells; host or cells: Ramos cells
Excerpt: as §1, §2, §3

β 2c/2i (trypsin-like) = assay: Cell-Based Proteasome subunit activity/selectivity assay, β2c/2i, substrate (KQL)2Rh110; conditions: Ramos cells; substrate (KQL)2Rh110 (β2c/2i); highest concentration tested 20 μM
Excerpt: as §1, §2, §3

β 1i (caspase-like) = molecular target: T3, β 1i (caspase-like) (Homo sapiens, UniProt P28065+P40306); assay: Cell-Based Proteasome subunit activity/selectivity assay, β1i, substrate (PAL)2Rh110; conditions: Ramos cells; substrate (PAL)2Rh110 (β1i); highest concentration tested 20 μM; read-out: Ic50:ramos:rh110-(pal)2
T3 construct: protease activity associated with the proteasome complex in cultured cells; endogenous in cells; host or cells: Ramos cells
Excerpt: as §1, §2, §3

β 1c (caspase-like) = molecular target: T4, β 1c (caspase-like) (Homo sapiens, UniProt P28072+Q99436); assay: Cell-Based Proteasome subunit activity/selectivity assay, β1c, substrate (LLE)2Rh110; conditions: Ramos cells; substrate (LLE)2Rh110 (β1c); highest concentration tested 20 μM; read-out: Ic50:ramos:rh110-(lle)2
T4 construct: protease activity associated with the proteasome complex in cultured cells; endogenous in cells; host or cells: Ramos cells
Excerpt: as §1, §2, §3

| Structure (SMILES) | IC50 [1] | IC50 [2] | IC50 (β 2c/2i (trypsin-like)) | IC50 (β 1i (caspase-like)) | IC50 (β 1c (caspase-like)) |
| --- | --- | --- | --- | --- | --- |
| CCc1ccc(C(C#N)NC(=O)c2cn(CCNC(=O)c3cccnc3OC)nn2)cc1 (stereo not drawn) [Example 29, N-[2-(4-{[Cyano-(4-ethyl-phenyl)-methyl]-carbamoyl}-[1,2,3]triazol-1-yl)-ethyl]-2-methoxy-nicotinamide] | 3.05 µM | ≥ 20 µM | ≥ 20 µM | ≥ 20 µM | ≥ 20 µM |
| CCc1ccc(C(C#N)NC(=O)c2cn(CCNC(=O)c3cc(Cl)ccn3)nn2)cc1 (stereo not drawn) [Example 27, 4-Chloro-pyridine-2-carboxylic acid [2-(4-{[cyano-(4-ethyl-phenyl)-methyl]-carbamoyl}-[1,2,3]triazol-1-yl)-ethyl]-amide] | 4.52 µM | ≥ 20 µM | ≥ 20 µM | ≥ 20 µM | ≥ 20 µM |
| CCc1ccc(C(C#N)NC(=O)c2cn(CCN3Cc4cc(OC)ccc4C3=O)nn2)cc1 (stereo not drawn) [Example 47, 1-[2-(5-Methoxy-1-oxo-1,3-dihydro-isoindol-2-yl)-ethyl]-1H-[1,2,3]triazole-4-carboxylic acid [cyano-(4-ethyl-phenyl)-methyl]-amide] | 1.49 µM | 7.67 µM | ≥ 20 µM | ≥ 20 µM | ≥ 20 µM |
| CCc1ccc(C(C#N)NC(=O)c2cn(CCNC(=O)c3ccc(OC)c(OC)c3OC)nn2)cc1 (stereo not drawn) [Example 1, 1-[2-(2,3,4-Trimethoxy-benzoylamino)-ethyl]-1H-[1,2,3]triazole-4-carboxylic acid [cyano-(4-ethyl-phenyl)-methyl]-amide] | 0.08 µM | ≥ 20 µM | ≥ 20 µM | ≥ 20 µM | ≥ 20 µM |
| COc1ccc(C(=O)NCCn2cc(C(=O)NCc3ccc(C)cc3)nn2)c(OC)c1OC [Example 3, 1-[2-(2,3,4-Trimethoxy-benzoylamino)-ethyl]-1H-[1,2,3]triazole-4-carboxylic acid 4-methyl-benzylamide] | 2.9 µM | ≥ 20 µM | ≥ 20 µM | ≥ 20 µM | ≥ 20 µM |
| CCc1ccc(C(C#N)NC(=O)c2cn(CCNC(=O)c3ccc(OC(F)(F)F)cc3OC)nn2)cc1 (stereo not drawn) [Example 11, 1-[2-(2-Methoxy-4-trifluoromethoxy-benzoylamino)-ethyl]-1H-[1,2,3]triazole-4-carboxylic acid [cyano-(4-ethyl-phenyl)-methyl]-amide] | 0.106 µM | 9.98 µM | ≥ 20 µM | ≥ 20 µM | ≥ 20 µM |

The next lines start with the values.

| IC50 [1] | IC50 [2] | IC50 (β 2c/2i (trypsin-like)) | IC50 (β 1i (caspase-like)) | IC50 (β 1c (caspase-like)) | Structure (SMILES) |
| --- | --- | --- | --- | --- | --- |
| 0.795 µM | ≥ 20 µM | ≥ 20 µM | ≥ 20 µM | ≥ 20 µM | COc1ccc(C(=O)NCCn2cc(C(=O)NC(C#N)c3ccc4ccsc4c3)nn2)c(OC)c1OC (stereo not drawn) [Example 66, 1-[2-(2,3,4-Trimethoxy-benzoylamino)-ethyl]-1H-[1,2,3]triazole-4-carboxylic acid (benzo[b]thiophen-6-yl-cyano-methyl)-amide] |
| 0.05 µM | ≥ 20 µM | ≥ 20 µM | ≥ 20 µM | ≥ 20 µM | N#CC(NC(=O)c1cn(CCNC(=O)c2ccc(C(F)(F)F)cc2F)nn1)c1ccc(C2CC2)cc1 (stereo not drawn) [Example 76, 1-[2-(2-Fluoro-4-trifluoromethyl-benzoylamino)-ethyl]-1H-[1,2,3]triazole-4-carboxylic acid [cyano-(4-cyclopropyl-phenyl)-methyl]-amide] |
| 1.01 µM | ≥ 20 µM | ≥ 20 µM | ≥ 20 µM | ≥ 20 µM | CCc1ccc(C(C#N)NC(=O)c2cn(CCNC(=O)c3ccc(C(F)(F)F)cc3F)cn2)cc1 (stereo not drawn) [Example 94, 1-[2-(2-Fluoro-4-trifluoromethyl-benzoylamino)-ethyl]-1H-imidazole-4-carboxylic acid [cyano-(4-ethyl-phenyl)-methyl]-amide] |
